The values that follow come from ChEMBL document CHEMBL5291721, “A preclinical secondary pharmacology resource illuminates target-adverse drug reaction associations of marketed drugs” (Nat Commun, 2023).

Test [1] concerns the target T1, Endothelin-1 receptor (Homo sapiens, UniProt P25101).
T1 sequence (P25101 whole entry): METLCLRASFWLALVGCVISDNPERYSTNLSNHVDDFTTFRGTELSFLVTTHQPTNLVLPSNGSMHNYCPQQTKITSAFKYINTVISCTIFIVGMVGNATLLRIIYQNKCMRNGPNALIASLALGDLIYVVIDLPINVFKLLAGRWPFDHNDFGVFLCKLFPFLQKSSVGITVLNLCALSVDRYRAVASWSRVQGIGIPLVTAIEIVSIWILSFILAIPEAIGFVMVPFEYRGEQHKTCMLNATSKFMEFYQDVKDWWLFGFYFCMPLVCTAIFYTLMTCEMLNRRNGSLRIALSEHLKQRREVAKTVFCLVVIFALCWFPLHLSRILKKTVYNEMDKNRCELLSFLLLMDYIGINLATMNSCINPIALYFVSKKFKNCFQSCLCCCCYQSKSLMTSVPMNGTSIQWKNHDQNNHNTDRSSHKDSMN

The target in test [2] is Glutamate receptor ionotropic, NMDA 1 (Rattus norvegicus, UniProt P35439).
Test [3] concerns the target Beta-2 adrenergic receptor (Homo sapiens, UniProt P07550). The test is classed as functional, cell-based.
For test [4], the target named is T2, Progesterone receptor (Homo sapiens, UniProt P06401).
T2 sequence (P06401 whole entry): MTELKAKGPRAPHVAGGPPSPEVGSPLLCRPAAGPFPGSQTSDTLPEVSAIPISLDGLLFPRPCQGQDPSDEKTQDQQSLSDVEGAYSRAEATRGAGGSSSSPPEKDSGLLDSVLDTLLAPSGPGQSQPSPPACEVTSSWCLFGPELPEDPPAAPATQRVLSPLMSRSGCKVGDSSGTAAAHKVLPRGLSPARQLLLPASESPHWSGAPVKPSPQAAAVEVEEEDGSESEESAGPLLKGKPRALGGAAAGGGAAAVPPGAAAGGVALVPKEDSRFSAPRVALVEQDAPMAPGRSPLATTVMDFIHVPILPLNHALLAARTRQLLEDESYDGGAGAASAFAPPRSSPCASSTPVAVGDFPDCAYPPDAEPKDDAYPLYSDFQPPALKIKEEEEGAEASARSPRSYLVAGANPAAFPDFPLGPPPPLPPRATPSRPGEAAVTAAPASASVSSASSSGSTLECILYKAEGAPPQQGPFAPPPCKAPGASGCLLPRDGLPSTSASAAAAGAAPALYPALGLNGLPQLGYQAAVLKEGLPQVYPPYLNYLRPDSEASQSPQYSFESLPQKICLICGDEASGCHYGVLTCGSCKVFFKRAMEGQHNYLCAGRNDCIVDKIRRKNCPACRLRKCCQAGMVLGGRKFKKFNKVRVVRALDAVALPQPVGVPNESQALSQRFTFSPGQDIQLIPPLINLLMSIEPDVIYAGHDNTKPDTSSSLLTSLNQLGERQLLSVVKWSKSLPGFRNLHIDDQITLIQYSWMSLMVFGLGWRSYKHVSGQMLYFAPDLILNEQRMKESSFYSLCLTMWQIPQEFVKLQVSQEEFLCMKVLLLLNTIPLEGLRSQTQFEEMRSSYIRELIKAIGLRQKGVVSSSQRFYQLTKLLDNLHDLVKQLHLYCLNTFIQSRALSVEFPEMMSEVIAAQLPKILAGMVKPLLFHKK

Test [5] addresses T3, Alpha-1A adrenergic receptor (Homo sapiens, UniProt P35348).
T3 sequence (P35348 whole entry): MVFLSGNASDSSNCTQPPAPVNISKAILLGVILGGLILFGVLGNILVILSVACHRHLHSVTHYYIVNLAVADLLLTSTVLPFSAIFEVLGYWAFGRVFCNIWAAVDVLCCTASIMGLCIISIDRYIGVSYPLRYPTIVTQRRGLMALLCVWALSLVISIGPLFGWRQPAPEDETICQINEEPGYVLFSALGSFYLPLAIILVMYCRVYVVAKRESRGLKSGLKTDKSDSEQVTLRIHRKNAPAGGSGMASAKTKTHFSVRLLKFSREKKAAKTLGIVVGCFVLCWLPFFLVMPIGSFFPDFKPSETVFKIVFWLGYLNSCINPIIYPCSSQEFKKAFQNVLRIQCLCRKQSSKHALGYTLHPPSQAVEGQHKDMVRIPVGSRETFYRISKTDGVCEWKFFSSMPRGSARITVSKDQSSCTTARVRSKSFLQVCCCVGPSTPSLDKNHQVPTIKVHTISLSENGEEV
It is filed as functional, cell-based.

Test [6] addresses Vascular endothelial growth factor receptor 2 (Homo sapiens, UniProt P35968). It is filed as functional.
Test [7] deals with T4, Amine oxidase [flavin-containing] A (Homo sapiens, UniProt P21397).
T4 sequence (P21397 whole entry): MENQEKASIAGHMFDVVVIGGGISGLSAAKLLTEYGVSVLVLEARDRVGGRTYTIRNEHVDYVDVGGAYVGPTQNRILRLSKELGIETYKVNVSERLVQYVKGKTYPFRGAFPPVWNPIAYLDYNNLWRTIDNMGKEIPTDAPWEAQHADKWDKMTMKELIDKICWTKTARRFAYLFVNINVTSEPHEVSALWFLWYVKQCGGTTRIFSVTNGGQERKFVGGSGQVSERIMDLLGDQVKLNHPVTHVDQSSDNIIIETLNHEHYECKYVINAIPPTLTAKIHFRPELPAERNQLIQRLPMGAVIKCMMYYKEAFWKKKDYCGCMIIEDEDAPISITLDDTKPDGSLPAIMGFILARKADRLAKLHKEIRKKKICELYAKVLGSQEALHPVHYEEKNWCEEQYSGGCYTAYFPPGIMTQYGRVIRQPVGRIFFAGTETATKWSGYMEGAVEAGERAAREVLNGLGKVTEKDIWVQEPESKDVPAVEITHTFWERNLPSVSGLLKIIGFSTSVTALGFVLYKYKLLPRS
The test is classed as functional.

Test [8] has as its target Histamine H3 receptor (Homo sapiens, UniProt Q9Y5N1).
The target of test [9] is T2, Progesterone receptor. It is filed as functional.
Test [10] has as its target T2, Progesterone receptor. It is filed as functional. This is another data set of the same source.

By AC50 is commonly meant the concentration at which the activity in the assay is half-maximal.
Note: assay procedure not described here.

Sequence of Vascular endothelial growth factor receptor 2 (P35968 whole entry): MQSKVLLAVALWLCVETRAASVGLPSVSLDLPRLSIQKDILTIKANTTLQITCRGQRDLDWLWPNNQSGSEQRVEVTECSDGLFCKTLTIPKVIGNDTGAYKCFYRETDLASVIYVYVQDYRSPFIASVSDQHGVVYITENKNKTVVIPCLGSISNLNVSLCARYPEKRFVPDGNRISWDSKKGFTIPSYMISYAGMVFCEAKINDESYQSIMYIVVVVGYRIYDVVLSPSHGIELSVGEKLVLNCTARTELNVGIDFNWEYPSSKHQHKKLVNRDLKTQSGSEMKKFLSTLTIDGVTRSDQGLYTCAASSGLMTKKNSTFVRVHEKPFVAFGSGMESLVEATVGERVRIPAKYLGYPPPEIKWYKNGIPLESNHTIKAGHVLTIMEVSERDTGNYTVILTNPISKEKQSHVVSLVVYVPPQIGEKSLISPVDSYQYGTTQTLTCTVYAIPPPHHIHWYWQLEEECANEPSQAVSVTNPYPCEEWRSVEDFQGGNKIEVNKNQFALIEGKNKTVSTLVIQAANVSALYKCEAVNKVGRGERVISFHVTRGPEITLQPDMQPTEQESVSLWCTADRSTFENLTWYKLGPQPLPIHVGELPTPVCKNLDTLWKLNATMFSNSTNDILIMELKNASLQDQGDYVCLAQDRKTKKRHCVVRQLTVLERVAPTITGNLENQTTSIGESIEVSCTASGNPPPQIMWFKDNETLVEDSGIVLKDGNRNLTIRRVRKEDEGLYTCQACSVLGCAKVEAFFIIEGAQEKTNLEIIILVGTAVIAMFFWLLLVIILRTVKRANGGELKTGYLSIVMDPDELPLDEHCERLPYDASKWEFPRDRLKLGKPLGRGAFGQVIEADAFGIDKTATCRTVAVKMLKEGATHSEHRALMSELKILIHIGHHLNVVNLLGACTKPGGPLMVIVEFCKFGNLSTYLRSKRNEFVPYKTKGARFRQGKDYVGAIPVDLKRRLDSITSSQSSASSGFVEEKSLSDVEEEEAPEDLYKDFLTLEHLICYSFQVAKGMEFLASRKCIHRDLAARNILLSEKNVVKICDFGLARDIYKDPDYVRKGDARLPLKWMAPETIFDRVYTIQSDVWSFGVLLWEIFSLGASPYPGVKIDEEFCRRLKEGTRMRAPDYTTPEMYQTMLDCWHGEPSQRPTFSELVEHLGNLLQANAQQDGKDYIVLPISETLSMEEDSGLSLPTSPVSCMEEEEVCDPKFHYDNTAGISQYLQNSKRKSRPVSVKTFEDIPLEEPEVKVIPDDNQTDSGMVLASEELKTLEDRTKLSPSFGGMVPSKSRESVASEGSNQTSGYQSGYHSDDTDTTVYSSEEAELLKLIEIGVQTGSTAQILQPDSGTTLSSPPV
Sequence of Beta-2 adrenergic receptor (P07550 whole entry): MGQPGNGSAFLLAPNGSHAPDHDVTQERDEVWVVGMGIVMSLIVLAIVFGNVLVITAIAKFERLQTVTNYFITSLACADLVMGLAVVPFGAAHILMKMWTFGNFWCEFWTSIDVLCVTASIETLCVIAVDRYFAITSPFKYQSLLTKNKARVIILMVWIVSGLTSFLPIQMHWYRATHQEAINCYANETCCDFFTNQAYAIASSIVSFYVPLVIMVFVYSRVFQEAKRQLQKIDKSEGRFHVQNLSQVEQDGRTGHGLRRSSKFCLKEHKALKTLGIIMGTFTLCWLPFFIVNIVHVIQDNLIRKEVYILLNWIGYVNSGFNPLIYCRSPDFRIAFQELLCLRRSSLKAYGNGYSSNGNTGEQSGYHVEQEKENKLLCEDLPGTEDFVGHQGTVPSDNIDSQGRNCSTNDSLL
Sequence of Histamine H3 receptor (Q9Y5N1 whole entry): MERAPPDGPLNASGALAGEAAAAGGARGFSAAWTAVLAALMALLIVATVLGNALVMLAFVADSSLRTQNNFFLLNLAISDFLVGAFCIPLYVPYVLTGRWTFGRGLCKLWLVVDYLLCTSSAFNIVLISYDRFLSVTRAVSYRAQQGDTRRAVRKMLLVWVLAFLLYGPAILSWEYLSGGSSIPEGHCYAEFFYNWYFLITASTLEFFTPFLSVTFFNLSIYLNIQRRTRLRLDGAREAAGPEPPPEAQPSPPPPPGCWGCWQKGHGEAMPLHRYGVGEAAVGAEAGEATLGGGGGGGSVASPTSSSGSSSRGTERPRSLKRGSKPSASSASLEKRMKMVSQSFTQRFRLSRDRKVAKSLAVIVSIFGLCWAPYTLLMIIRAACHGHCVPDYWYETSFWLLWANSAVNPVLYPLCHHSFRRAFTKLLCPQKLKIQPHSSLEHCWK

On to `CC(C(=O)O)c1ccc(N2CC=CC2)c(Cl)c1` (centres undefined) [PIRPROFEN], for which the concentration at half-maximal activity (AC50) in test [1] was above 30 µM; in test [2], above 10 µM; in test [3] it was above 30 µM; in test [4], above 30 µM; in test [5] it was above 30 µM; in test [6], above 30 µM. For the same compound, the AC50 in test [7] and in test [8] was above 30 µM each time.

Take `Nc1nc(N)c2nc(-c3ccccc3)c(N)nc2n1`: the AC50 in test [9], in [1], in [2], in test [3], in test [4] and in [5] was above 30 µM throughout. The AC50 in [6], in [7] and in test [8] was above 30 µM in each case.

`COc1cc2c(cc1OC)C(=O)C(CC1CCN(Cc3ccccc3)CC1)C2` (centres undefined) [DONEPEZIL]: the AC50 in test [1] is above 30 µM; in [3], above 30 µM; in test [4], above 30 µM; in test [6], above 30 µM; in [8], 5.2 µM.

For `OCCN1CCN(CCCN2c3ccccc3C=Cc3ccccc32)CC1` [OPIPRAMOL], the AC50 in test [9] was above 30 µM; in test [1], above 30 µM; in test [2], above 30 µM; in test [3], above 30 µM; in [4] it was above 30 µM; in [5], 14 µM. The AC50 in test [7] is above 30 µM; in test [8], 19 µM; in [10], above 30 µM.

Turning to `CC[C@H](C)C(=O)O[C@H]1C[C@H](O)C=C2C=C[C@H](C)[C@H](CC[C@@H](O)C[C@@H](O)CC(=O)O)[C@H]21` [PRAVASTATIN], the half-maximal activity concentration (AC50) in test [9] was above 30 µM; in test [1], above 30 µM; in [2], above 10 µM; in [3], above 30 µM; in test [5] it was above 30 µM; in test [10], above 30 µM.

Take `Oc1ncnc2[nH]ncc12` [ALLOPURINOL]: the AC50 in test [1] is above 30 µM; in [2], above 10 µM; in test [3], above 30 µM; in [4], above 30 µM; in [5], above 30 µM; in test [6] it was above 30 µM. Besides, the concentration at half-maximal activity (AC50) in [7] and in test [8] was above 30 µM throughout.

Turning to `O=C(CCCCCCC(=O)Nc1ccccc1)NO` [VORINOSTAT], the half-maximal activity concentration (AC50) in [9], in test [1], in [2], in test [3], in test [5] and in test [10] was above 30 µM throughout.

`C[C@H]1O[C@H](O[C@H]2[C@H](O)[C@@H](O)[C@@H](O[C@H]3[C@H](O)[C@@H](O)C(O)O[C@@H]3CO)O[C@@H]2CO)[C@H](O)[C@@H](O)[C@@H]1N[C@H]1C=C(CO)[C@@H](O)[C@H](O)[C@H]1O` (some centres undefined) [ACARBOSE]: the half-maximal activity concentration (AC50) was above 30 µM in test [9]; above 30 µM in test [1]; above 10 µM in [2]; above 30 µM in test [3]; above 30 µM in [4]; above 30 µM in test [5]. Besides, the AC50 in test [6], in [7], in test [8] and in [10] was above 30 µM throughout.

For the compound `O=C(NC[C@H]1CN(c2ccc(N3CCOCC3=O)cc2)C(=O)O1)c1ccc(Cl)s1` [RIVAROXABAN], the AC50 in test [9], in test [2], in test [3], in test [4], in test [5] and in [7] was above 30 µM each time. Moreover, the concentration at half-maximal activity (AC50) in test [8] and in test [10] was above 30 µM each time.
